What was measured:
[1] = Encapsulation efficiency of LNP preparations (Ribogreen assay; Qubit, unlysed and lysed LNPs); assay type: physicochemical; details: LNP preparation with the ionizable lipid, ABE mRNA:sgRNA 1:1, except 7-1, 7-2, 7-6, 7-10 (unlysed and lysed LNPs, Qubit)
Protocol: Lipid nanoparticle components were dissolved in 100% ethanol at specified lipid component molar ratios. mRNA encoding an adenine base editor and a chemically-modified sgRNA was dissolved at a mass ratio of 1:1 in 50 mM citrate, pH 4.0, resulting in a concentration of NA cargo of approximately 0.1 mg/mL.
LNP preparations were formulated with molar ratios of 47.5% Ionizable Lipid: 40% Cholesterol: 2.5% PEG2000-DMG: 10% DSPC total lipid to NA molar ratio of 6 to 12.
LNP preparations were formed by microfluidic mixing of the lipid and NA solutions using Precision Nanosystems NanoAssemblr Ignite series Instruments, according to the manufacturer's protocol.
With the exception of LNPs comprising ionizable lipids 7-1, 7-2, 7-6, and 7-10, RNA concentration and encapsulation efficiency were determined by Ribogreen assay (BioTek Synergy LX plate reader). For LNPs comprising ionizable lipids 7-1, 7-2, 7-6, and 7-10, RNA concentration was determined by Qubit microRNA kit (for siRNA) or HS RNA kit (for mRNA) per manufacturer's instructions, and encapsulation efficiency was determined by measuring unlysed and lysed LNPs.

[2] = LNP hydrodynamic diameter and polydispersity index by dynamic light scattering (DLS); assay type: physicochemical; details: for Diameter (nm): hydrodynamic diameter of the LNP preparation with the ionizable lipid; for PDI: polydispersity index of the LNP preparation with the ionizable lipid
Protocol: A 3:1 ratio of aqueous to organic solvent was maintained during mixing using differential flow rates. After mixing, LNP preparations were collected and diluted in TBS (approximately 7:1 v/v), and further buffer exchange was conducted using dialysis in TBS at 4° C. for 8 to 24 hours against a 20 kDa filter. After this initial dialysis, each individual LNP preparation was characterized via dynamic light scattering (DLS) to measure size and polydispersity. pKa of a subpopulation of LNP preparations was measured via TNS assay.
DLS-LNP preparation hydrodynamic diameter and polydispersity index (PDI) was measured using high throughput dynamic light scattering (DLS) (DynaPro plate reader II, Wyatt). LNP preparations were diluted 1×PBS to an appropriate concentration and analyzed.

Encapsulation Efficiency (%) [1] [%] | Diameter (nm) [2] [nm] | PDI [2] | SMILES
85.9 | 84.01 | 0.09 | CC/C=C\CCCCOC(CCC(=O)OCC(COC(=O)CCCCCC(=O)OCCC(CCCCC)CCCCC)COC(=O)CCC(CC)OC(=O)NCCN1CCCC1)OCCCC/C=C\CC (stereo not drawn) [Compound 7-24, 1-(3-((4,4-bis(((Z)-oct-5-en-1-yl)oxy)butanoyl)oxy)-2-(((4-(((2-(pyrrolidin-1-yl)ethyl)carbamoyl)oxy)hexanoyl)oxy)methyl)propyl) 7-(3-pentyloctyl) heptanedioate]
99.2 | 83.43 | 0.03 | CC/C=C\CCCCOC(CCC(=O)OCC(COC(=O)CCCCCCOC(=O)C(CCCC)CCCCCC)COC(=O)CCC(CCC)OC(=O)NCCN1CCCC1)OCCCC/C=C\CC (stereo not drawn) [Compound 7-21, 12-(((4,4-bis(((Z)-oct-5-en-1-yl)oxy)butanoyl)oxy)methyl)-4,9,15-trioxo-6-propyl-1-(pyrrolidin-1-yl)-5,10,14-trioxa-3-azahenicosan-21-yl 2-butyloctanoate]
89.2 | 114.2 | 0.11 | CC/C=C\CCCCOC(CCC(=O)OCC(COC(=O)CCCCCCOC(=O)C(CCCC)CCCCCC)COC(=O)CCC(CCCCCC)OC(=O)NCCN(C)CC)OCCCC/C=C\CC (stereo not drawn) [Compound 7-43, 3-((4,4-bis(((Z)-oct-5-en-1-yl)oxy)butanoyl)oxy)-2-(((7-((2-butyloctanoyl)oxy)heptanoyl)oxy)methyl)propyl 4-(((2-(ethyl(methyl)amino)ethyl)carbamoyl)oxy)decanoate]
88.2 | 76.95 | 0.09 | CC/C=C\CCCCOC(CCC(=O)OCC(COC(=O)CCCCCCC/C=C\C/C=C\CCCCC)COC(=O)CCC(CCCCCC)OC(=O)OCCCN(CC)CC)OCCCC/C=C\CC (stereo not drawn) [Compound 7-10, 16-(((4,4-bis(((Z)-oct-5-en-1-yl)oxy)butanoyl)oxy)methyl)-3-ethyl-10-hexyl-8,13-dioxo-7,9,14-trioxa-3-azaheptadecan-17-yl (9Z,12Z)-octadeca-9,12-dienoate]
98.5 | 60.05 | 0.11 | CC/C=C\CCCCOC(CCC(=O)OCC(COC(=O)CCCCCC(=O)OCCC(CCCCC)CCCCC)COC(=O)CCC(CCCC)OC(=O)NCCN1CCCC1)OCCCC/C=C\CC (stereo not drawn) [Compound 7-26, 1-(3-((4,4-bis(((Z)-oct-5-en-1-yl)oxy)butanoyl)oxy)-2-(((4-(((2-(pyrrolidin-1-yl)ethyl)carbamoyl)oxy)octanoyl)oxy)methyl)propyl) 7-(3-pentyloctyl) heptanedioate]
95.0 | 66.85 | 0.06 | CC/C=C\CCCCOC(CCC(=O)OCC(COC(=O)CCCCCCOC(=O)C(CCCC)CCCCCC)COC(=O)CCC(CCCCCC)OC(=O)NCCN1CCCC1)OCCCC/C=C\CC (stereo not drawn) [Compound 7-7, 3-((4,4-bis(((Z)-oct-5-en-1-yl)oxy)butanoyl)oxy)-2-(((7-((2-butyloctanoyl)oxy)heptanoyl)oxy)methyl)propyl 4-(((2-(pyrrolidin-1-yl)ethyl)carbamoyl)oxy)decanoate]
97.8 | 43.80 | 0.04 | CC/C=C\CCCCOC(CCC(=O)OCC(COC(=O)CCCCCCC/C=C\C/C=C\CCCCC)COC(=O)CCC(CCCCCC)OC(=O)NCCN1CCCC1)OCCCC/C=C\CC (stereo not drawn) [Compound 7-2, 3-((4,4-bis(((Z)-oct-5-en-1-yl)oxy)butanoyl)oxy)-2-(((4-(((2-(pyrrolidin-1-yl)ethyl)carbamoyl)oxy)decanoyl)oxy)methyl)propyl (9Z,12Z)-octadeca-9,12-dienoate]
